In US20210284691A1, “CBX8 CHROMDOMAIN INHIBITORS AND THE USES THEREOF” (Purdue Research Foundation, priority 2019, published 2021):
Read-outs that look alike come from different tables or passages of the source. One block for each molecule: values may come before it. Square brackets hold non-standard residues; d marks the D form. Peptide text beside a SMILES is read from it. * marks the point of attachment. ξ: configuration not given here. Isoxazole3carbonyl(5-Me) = Cc1cc(C(=O)*)no1; Tyr(3-Cl) = N[C@@H](Cc1ccc(O)c(Cl)c1)C(=O)O; Benzoyl(4-OPh) = O=C(c1ccc(Oc2ccccc2)cc1)*; Benzoyl(4-Ph) = O=C(c1ccc(-c2ccccc2)cc1)*; Lys(Me3) = C[N+](C)(C)CCCC[C@H](N)C(=O)O; Gly(3-thienyl) = N[C@H](C(=O)O)c1ccsc1; Lys(Et2) = CCN(CC)CCCC[C@H](N)C(=O)O; Gly(cPent) = N[C@H](C(=O)O)C1CCCC1; Gly(cPr) = N[C@H](C(=O)O)C1CC1; ξIle = CC[C@H](C)C(N)C(=O)O; NH(propargyl) = C#CCN*

Assays:
[1] = system: H3K27me3, AR, ENO2, N-Myc, CBX2 protein levels; test: Western blotting of protein expression in VCaP_NED cells; format: cell-based
Excerpt: FIG. 12A). Neuroendocrine differentiation (NED) of prostate cancer induced by androgen deprivation. Representative pictures of LNCaP cells treated with normal media or charcoal-stripped serum (CSS) media for 6 days to induce neuroendocrine differentiation (LNCaP_NED). FIG. 12B). Transcriptional fold changes of KLK3/TMPRSS2/ENO2/CHGA were quantified normalized to control gene YWHAZ upon CSS media treatment for 6 or 9 days. FIG. 12C). Western blotting of CBX paralogs in LNCaP and LNCaP_NED cells generated from 14-day CSS treatment. FIG. 12D). Cell proliferation of LNCaP_NED following 5 days incubation with 2 or 10 μM SW2_152F. DMSO was used as negative control. FIG. 12E). LNCaP_NED cells were treated with 10 μM SW2_152F for 24 h-96 h. Cell morphology pictures were captured starting from 24 h. Average cell size were plotted at 24 h or 48 h for both DMSO group and compound treated group. FIG. 12F). LNCaP_NED cells were treated with 10 μM or 50 μM SW2_152F for 48 hours. Transcriptional fold change of genes (KLK3/TMPRSS2/AR/CBX2) were normalized to YWHAZ in LNCaP_NED cells with SW2_152F treatment or DMSO. FIG. 12G). LNCaP cells were treated with DMSO. LNCaP_NED cells were treated with DMSO, 10 μM GSK343 or 10 μM SW2_152F for 48 hours. Whole cell lysates were extracted for western blotting. FIG. 12H). LNCaP_NED cells were treated with DMSO or 10 μM SW2_152F for 4 hours before harvest. Binding of H3K27me3 and CBX2 at specific genomic sites (KLK3/TMPRSS2, e: enhancer, p: promoter) were evaluated using chromatin immunoprecipitation-qPCR. For all experiments in the figure, error bars represent SEM n=3 biological replicates, p-values were calculated using two-tailed Student's t-test, *=p<0.05, **=p<0.01, ***=p<0.001, ****=p<0.0001.
In another androgen-sensitive prostate cancer cell line, VCaP, 6 days of androgen deprivation decreases AR protein expression and increases ENO2, N-Myc, H3K27me3 and CBX2 protein expression (FIG. 12G), similar to published findings (Y. Zhang, et al., 2018). Using this NED cell line (VCaP_NED), we tested how addition of EZH2 inhibitor GSK343 or CBX2 inhibitor SW2_152F affects protein expression changes during NED.

CBX6 ChD = biological target: T1, CBX6 ChD (Homo sapiens, UniProt O95503); test: Competitive fluorescence polarization (FP) assay; format: binding; settings: average of quadruplicates ± s.d.
T1 construct: CBX chromodomain constructs; host or cells: E. coli BL21 CodonPlus RIL
T1 sequence (O95503 11-69 limits assumed): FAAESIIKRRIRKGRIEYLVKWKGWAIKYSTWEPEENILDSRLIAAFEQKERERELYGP
Method: (§1) CBX chromodomain constructs (addgene plasmid #25158 (CBX2), #25237 (CBX4), #25296 (CBX6), #25241 (CBX7) and #62514 (CBX8, provided by Cheryl Arrowsmith), Kaustov et al.) were transformed into chemically competent BL21 CodonPlus RIL E. coli cells (Stratagene, La Jolla, Calif.) as N-terminal His6-tagged proteins. Bacterial growth was completed at 37° C. in LB media to OD600=2.0, followed by reducing the temperature to 16° C. over 30-60 min and induced with 1 mM IPTG for 16 h. Cells were collected by centrifugation at 6000 rpm for 20 min and resuspended in ChD binding buffer (20 mM Tris, pH 8, 150 mM NaCl, 0.01% Tween-20, 20 mM imidazole) with 1.0 mM PMSF. Bacteria pellets were stored at −80° C. until needed. Pellets were thawed on ice for 10 min in ChD binding buffer, and shaked at 4° C. supplemented with 100 μg/mL lysozyme, 1 mg/mL CHAPS and 1 mM PMSF, for 30 min. Cells were subsequently lysed by sonication (15 W, 30 s on, followed by 30 s off, twice, followed by 20 W for 1 min). The solubilized fraction was collected by centrifugation at 15000 rpm for 40 min at 4° C. Meanwhile, Ni-NTA Agarose resin (QIAGEN, Venlo, Netherlands) was washed with H2O and equilibrated with ChD binding buffer. The soluble fraction was incubated with the prewashed Ni-NTA agarose resin at 4° C. for 2 h. The resin was then washed 3× with ChD purification buffer (20 mM Tris, pH 8, 150 mM NaCl, 0.01% Tween-20, 1 mM PMSF). Proteins were eluted by the addition of 0.5 M imidazole to ChD purification buffer. The elution was diluted with 30% glycerol, flash frozen, and stored at −80° C. until needed. Protein purity was assessed by SDS-PAGE and concentration was determined by the Pierce 660 kit (Thermo Scientific).
(§2) Competitive Fluorescence polarization (FP) assay of PSL hits against CBX6 ChD, CBX7 ChD and CBX8 ChD. FP was measured by titration of CBX ChDs to a FITC-labelled probe as previously reported (Simhadri et al.). Binding and competition FP assays were performed in black 384-well plates with optical bottoms. The protein concentrations used were selected based on the reported relative affinity of the CBX ChD protein for the FITC probes. The FITC-labeled probe was kept constant at 100 nM with 1 μM CBX6, 0.4 μM CBX7 or 4 μM CBX8 with varying amounts of peptide by 2-fold series dilutions, from 500 μM as highest peptide concentration to 0.488 μM as the lowest. Assays were performed for each peptide in four replicates.

CBX7 ChD = biological target: T2, CBX7 ChD (Homo sapiens, UniProt O95931); test: Competitive fluorescence polarization (FP) assay; format: binding; settings: average of quadruplicates ± s.d.
T2 construct: CBX chromodomain constructs; host or cells: E. coli BL21 CodonPlus RIL
T2 sequence (O95931 11-69 limits assumed): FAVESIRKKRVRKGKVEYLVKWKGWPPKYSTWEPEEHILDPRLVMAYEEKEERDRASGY
Method: as §1, §2

CBX8 ChD [2] = biological target: T3, CBX8 ChD (Homo sapiens, UniProt Q9HC52); test: Competitive fluorescence polarization (FP) assay; format: binding
T3 construct: CBX chromodomain constructs; host or cells: E. coli BL21 CodonPlus RIL
T3 sequence (Q9HC52 11-69 limits assumed): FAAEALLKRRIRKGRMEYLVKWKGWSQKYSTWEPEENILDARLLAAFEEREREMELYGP
Method: as §1, §2

CBX8 ChD [3] = biological target: T3, CBX8 ChD; test: Direct fluorescence polarization (FP) binding assay
Method: as §1, with “Bacterial” for “CBX chromodomain constructs (addgene plasmid #25158 (CBX2), #25237 (CBX4), #25296 (CBX6), #25241 (CBX7) and #62514 (CBX8, provided by Cheryl Arrowsmith), Kaustov et al.) were transformed into chemically competent BL21 CodonPlus RIL E. coli cells (Stratagene, La Jolla, Calif.) as N-terminal His6-tagged proteins. Bacterial”
Direct fluorescence polarization (FP) binding assay of PSL hits against PcG CBX ChDs. FP assays were conducted as above with slight modifications. Alkyne peptides described above were conjugated with a fluorescein group(5-/6-FAM) through copper catalyzed click reaction as previously described. The FAM-labeled peptide was kept constant at 100 nM. The CBX ChD proteins were titrated by 2-fold series dilutions in the assays. The highest protein concentrations, at which FAM-peptide was completely bound, used for each CBX in the direct binding assays depends on the binding affinity of the peptides. Assays were performed for each peptide in four replicates.

[4] = competitive FP, average of quadruplicates ± s.d., read-out: IC50 (μM) CBX8

Compound: CCCc1cc(C)[nH]c(=O)c1CNC(=O)c1cc(-c2ccnc(N3CCN(C)CC3)c2)cc2c1cnn2C(C)C [GSK343]
CBX2 protein expression [1]: decrease in CBX2 expression
H3K27me3 levels ([1]; 10 μM, 48 hours): reduces H3K27me3 levels
AR, ENO2 and N-Myc expression ([1]; compared to DMSO): increase AR and decrease ENO2 and N-Myc expression

Compound: C#CCNC(=O)[C@H](CO)NC(=O)[C@H](CCCCN(CC)CC)NC(=O)[C@@H](NC(=O)[C@@H](NC(=O)c1ccc(Oc2ccccc2)cc1)c1ccsc1)[C@@H](C)CC [SW2-110B] ({Benzoyl(4-OPh)}-[Gly(3-thienyl)]I[Lys(Et2)]S-{NH(propargyl)})
IC50 (μM) CBX6 (CBX6 ChD): ND (Aggreg.)
IC50 (μM) CBX7 (CBX7 ChD): ND (Aggreg.)

Compound: CC[C@H](C)C(NC(=O)[C@@H](NC(=O)[C@H](Cc1ccc(O)c(Cl)c1)NC(=O)c1cc(C)on1)C1CC1)C(=O)N[C@@H](CCCC[N+](C)(C)C)C(=O)N[C@@H](CO)C(N)=O (stereo partly drawn) [SW2_90] ({Isoxazole3carbonyl(5-Me)}-[Tyr(3-Cl)][Gly(cPr)][ξIle][Lys(Me3)]S-NH2)
IC50 (CBX7 ChD): 0.82 ± 0.12 µM

Compound: C#CCNC(=O)[C@H](CO)NC(=O)[C@H](CCCCN(CC)CC)NC(=O)C(NC(=O)[C@@H](NC(=O)c1ccc(-c2ccccc2)cc1)c1ccsc1)[C@@H](C)CC (stereo partly drawn) [SW2_104B] ({Benzoyl(4-Ph)}-[Gly(3-thienyl)][ξIle][Lys(Et2)]S-{NH(propargyl)})
IC50 (μM) CBX6 (CBX6 ChD): ND (Aggreg.)
IC50 (CBX8 ChD [2]; [4]): > 15 µM
IC50 (μM) CBX7 (CBX7 ChD): ND (Aggreg.)

Compound: CC[C@H](C)[C@H](NC(=O)[C@@H](NC(=O)c1ccc(Oc2ccccc2)cc1)C1CCCC1)C(=O)N[C@@H](CCCCN(CC)CC)C(=O)N[C@@H](CO)C(=O)NCc1cn(CCCCNC(=O)c2ccc3c(c2)C2(OC3=O)c3ccc(O)cc3Oc3cc(O)ccc32)nn1 [SW2_110A-FL]
selectivity for CBX8 ChD over CBX7 ChD (CBX8 ChD [3]; from Kd values): 20 fold
selectivity for CBX8 over CBX2 (CBX8 ChD [3]; from Kd values): 5 fold

Compound: C#CCNC(=O)[C@H](CO)NC(=O)[C@H](CCCCN(CC)CC)NC(=O)C(NC(=O)[C@@H](NC(=O)c1ccc(Oc2ccccc2)cc1)C1CCCC1)[C@@H](C)CC (stereo partly drawn) [SW2_110A] ({Benzoyl(4-OPh)}-[Gly(cPent)][ξIle][Lys(Et2)]S-{NH(propargyl)})
inhibition of THP1 proliferation compared to DMSO (THP1 cells; 100 μM, after 12 days of treatment): ~80%
IC50 (THP1 cells; read-out: IC50 for growth inhibition of THP1 cells, 12-day treatment, CellTiter-Glo): 25 ± 1.1 µM
Kd (CBX8 ChD [3]): ~0.8 µM
selectivity for CBX8 over all other CBX paralogs in vitro (CBX8 ChD [3]): ≥ 5 fold
IC50 (μM) CBX6 (CBX6 ChD): ND (Aggreg.)
IC50 (CBX8 ChD [2]): > 7 µM
IC50 (μM) CBX7 (CBX7 ChD): ND (Aggreg.)

Second part, the molecule after the results:

IC50 (μM) CBX6 (CBX6 ChD): ND (Aggreg.)
Compound: CC[C@H](C)C(NC(=O)[C@@H](NC(=O)c1ccc(-c2ccccc2)cc1)C1CCCC1)C(=O)N[C@@H](CCCC[N+](C)(C)C)C(=O)N[C@@H](CO)C(N)=O (stereo partly drawn) [SW2_89] ({Benzoyl(4-Ph)}-[Gly(cPent)][ξIle][Lys(Me3)]S-NH2)

IC50 (CBX8 ChD [2]; [4]): 40 ± 8.3 µM
Compound: CC[C@H](C)C(NC(=O)[C@@H](NC(=O)c1ccc(-c2ccccc2)cc1)C1CC1)C(=O)N[C@@H](CCCC[N+](C)(C)C)C(=O)N[C@@H](CO)C(N)=O (stereo partly drawn) [SW2_101A] ({Benzoyl(4-Ph)}-[Gly(cPr)][ξIle][Lys(Me3)]S-NH2)

IC50 (CBX6 ChD): > 100 µM
IC50 (CBX7 ChD): > 100 µM
Compound: CC[C@H](C)C(NC(=O)[C@@H](NC(=O)c1ccc(Oc2ccccc2)cc1)C1CCCC1)C(=O)N[C@@H](CCCC[N+](C)(C)C)C(=O)N[C@@H](CO)C(N)=O (stereo partly drawn) [SW2_101B] ({Benzoyl(4-OPh)}-[Gly(cPent)][ξIle][Lys(Me3)]S-NH2)

IC50 (CBX6 ChD): > 100 µM
IC50 (CBX8 ChD [2]; [4]): 4 ± 1.1 µM
Compound: CC[C@H](C)C(NC(=O)[C@@H](NC(=O)c1ccc(Oc2ccccc2)cc1)C1CC1)C(=O)N[C@@H](CCCC[N+](C)(C)C)C(=O)N[C@@H](CO)C(N)=O (stereo partly drawn) [SW2_101F] ({Benzoyl(4-OPh)}-[Gly(cPr)][ξIle][Lys(Me3)]S-NH2)
